Assay results taken from patent US12202790B2, “Sulfonamide derivatives having selective Nox inhibiting activity” (GLUCOX BIOTECH AB, priority 2018, dated 2025).

Columns and labels:
Hippocampal brain slices = assay: In vitro stroke model: hippocampal brain slices subjected to hypoxia and glucose deprivation; format: cell-based; conditions: hypoxia and glucose deprivation 5 hours, viability after 24 hours of culture
Procedure: FIG. 4 is a bar chart showing cell viability (in % of basal cell viability) of hippocampal brain slices subjected to hypoxia and starvation for 5 h and then cultured for 24 h in the absence (OGD) or presence of Example 11 at a concentration of 0.3 μM, 3 μM, or 10 μM. Basal=no hypoxia or starvation, cells cultured in the presence of culture medium only. OGD=5 h of hypoxia or starvation, cells cultured in the presence of culture medium only.
FIG. 5 is a bar chart showing cell viability (in % of basal cell viability) of hippocampal brain slices subjected to hypoxia and starvation for 5 h and then cultured for 24 h in the absence (OGD) or presence of Example 17 at a concentration of 0.3, 3 or 10 μM. Basal=no hypoxia or starvation, cells cultured in the presence of culture medium only. OGD=5 h of hypoxia or starvation, cells cultured in the presence of culture medium only.
Hippocampal brain slices and human brain micro-vascular endothelial cells were subjected to hypoxia and glucose deprivation (starvation) for 5 hours and were tested for viability after 24 hours of culture in the presence of Example 11 or Example 17 at different concentrations. Additionally, human brain micro-vascular endothelial cells were subjected to hypoxia and glucose deprivation (starvation) for 6 hours and were tested for viability after 24 hours of culture in the presence of Example 44 at various concentrations.

C57B16/J mice = assay: Mouse model of acute ischemic stroke by transient middle cerebral artery occlusion (tMCAO); format: in vivo; conditions: 2.56 mg/kg ip, 6 times once per hour, from 1 hour after reperfusion or 30 min before reperfusion, 24 h
Procedure: A mouse model of acute ischemic stroke by transient middle cerebral artery occlusion (tMCAO) was used. The model has been described by Kleinschnitz C, et al. 2010, J Exp Med 203(3):513-518. C57B16/J mice were anesthetized with isoflurane (0.8% in oxygen). The animal was placed on a heating-pad, and rectal temperature was maintained at 37.0° C. using a servo-controlled rectal probe-heating pad (Cibertec, Spain). Transient cerebral ischemia was induced using an intraluminal filament technique. Using a surgical microscope (Tecnoscopio OPMI pico, Carl Zeiss, Meditec Iberia SA, Spain), a midline neck incision was made and the right common and external carotid arteries were isolated and permanently ligated. […]
After sacrificing the mice (24 h reperfusion), brains were quickly removed and cut in four 2-mm thick coronal sections using a mouse brain slice matrix (Harvard Apparatus, Spain). […] Indirect infarct volumes were calculated by volumetry (ImageJ software, National Institutes of Health, USA) according to the following equation: Vindirect (mm^3)=Vinfarct×(1−(Vih−Vch)/Vch), where the term (Vih−Vch) represents the volume difference between the ischemic hemisphere and the control hemisphere and (Vih−Vch)/Vch expresses this difference as a percentage of the control hemisphere (FIGS. 7 and 9).

Human islet cells = assay: Effects on human islet cell viability; format: cell-based; conditions: 48 h, compound 1 μM
Procedure: Human islet cells were incubated at control condition, with the cytokines IL-1β (20 ng/ml)+IFN-γ (20 ng/ml), or with palmitate (1.5 mM+2% BSA)+high glucose (20 mM) (PH) for 2 days with or without Nox1 inhibitor ML-171 (2 μM), Nox2 inhibitor Phos-I2 (2 μM) or Example 17 (1 μM). Islets were photographed in an inverted fluorescence microscope and the intensities of red (PI) and blue (Bisbenzimide) signals were quantified using Image J software. Results are indicated as mean±S.E.M for 7 human islet donors.

Sprague-Dawley rats = assay: Streptozotocin rat model of diabetic retinopathy; format: in vivo; conditions: 10 mg/ml eye drops for two weeks, STZ diabetic rats
Procedure: Animals were maintained on a 12 h light-dark cycle, at 22-25° C. Food and water were available ad libitum. Diabetes was induced by a single dose of streptozotocin (STZ, 70 mg/kg, ip, Sigma-Aldrich, Germany) dissolved in sodium citrate (0.1M) buffer (diabetic group) after a fasting period of 8-12 hours. Animals with blood glucose levels>350 mg/d1, after 72 hours post-STZ injection were considered diabetic. Both male and female Sprague-Dawley rats were used in the study. Three experimental groups were employed, namely Control (n=6), Diabetic (n=7), and Diabetic-treated group (n=6). Example 17 (10 mg/ml) dissolved in DMSO was administered as eye drops, for two weeks, starting two (2) days after STZ administration. Animals were euthanized 24 hours after the last treatment, and their eyes were removed. […]
Antibodies raised against the macroglia marker glial fibrillary acidic protein (GFAP) were employed. Quantification using the public domain ImageJ 1.43m software was employed for the mean gray value [integrated density (fluorescence density)/delineated area] calculated and expressed as a percentage of the mean gray value of the control. Statistical analysis of the data was performed using GraphPad Prism v5.0 (San Diego, Calif., USA) and differences between groups were evaluated by one-way analysis of variance (ANOVA) with Neuman-Keuls. […]

SMILES: Cc1ccccc1CCNS(=O)(=O)c1c(Cl)cc(Br)cc1Cl [Example 17, 4-bromo-2,6-dichloro-N-[2-(2-methylphenyl)ethyl]benzene-1-sulfonamide]
- neuroprotective effect (cell viability) (Hippocampal brain slices): neuroprotective effect
- brain damage (TTC stained coronal brain sections) (C57B16/J mice): significant reduction in brain damage
- infarct volume (C57B16/J mice; compared to control animals): substantial reduction of infarct volume
- human islet cell death with cytokines (Human islet cells; IL-1β (20 ng/ml)+IFN-γ (20 ng/ml)): protected both against cytokines and high glucose+palmitate
- human islet cell death with high glucose+palmitate (Human islet cells; palmitate (1.5 mM)+high glucose (20 mM)): protected both against cytokines and high glucose+palmitate
- GFAP immunoreactivity in retina (Sprague-Dawley rats): attenuated the diabetes induced increase in GFAP immunoreactivity

SMILES: Cc1ccccc1CCNS(=O)(=O)c1c(C)cccc1Cl [Example 11, 2-chloro-6-methyl-N-[2-(2-methylphenyl)ethyl]benzene-1-sulfonamide]
- neuroprotective effect (cell viability) (Hippocampal brain slices): neuroprotective effect
